Reference: patent US20110118120A1, “SYNERGISTIC HERBICIDAL COMPOSITION CONTAINING AMINOPYRALID AND SULFONYLUREAS” (Dow AgroSciences LLC, priority 2009, published 2011)

System: milk thistle (Sonchus oleraceus; SONOL)
Test: Postemergence herbicidal activity of mixtures under field conditions (percent visual weed control)
Format: in vivo
Settings: postemergence foliar, spring wheat
Description: These trials were conducted under field conditions in Northern New South Wales, Australia. Trials sites were located in commercially grown fields of spring wheat (Triticum aestivum). The wheat crop was grown using normal cultural practices for fertilization, seeding, and maintenance to ensure good growth of the crop and the weeds. The trial was conducted using normal research methodology. Trial plots were marked out measuring 3 meters (m) by 10 m. All treatments were applied using a randomized complete block trial design with 4 replications per treatment. The trial sites had naturally occurring populations of weeds present. The weed spectrum included, but was not limited to, milk thistle (Sonchus oleraceus; SONOL); wire-weed (Polygonum aviculare; POLAV); turnip weed (Rapistrum rugosum; RASRU); Medick, Medicago spp. (MEDSS); Patersons curse (Echium plantagineum; EPHIL). The weeds were treated with postemergence foliar applications when they were between cotyledons and 8 true leaves.
Treatments consisted of tank mixes of soluble granules of aminopyralid potassium salt and commercially available formulations of metsulfuron-methyl (Ally™ herbicide, water dispersible granules) and MCPA iso-octyl (emulsifiable concentrate). The ‘carrier’ application volume was using 100 liters per hectare (L/ha) of water. […]

With `Nc1cc(Cl)nc(C(=O)O)c1Cl` [Aminopyralid, aminopyralid] the “% Control SONOL Ob (percent control observed)” value (Aminopyralid 3.75 g ae/ha alone) was 18%.

`COC(=O)c1ccccc1S(=O)(=O)NC(=O)Nc1nc(C)nc(OC)n1` [Metsulfuron, metsulfuron-methyl] was tested, and the “% Control SONOL Ob (percent control observed)” value (Metsulfuron 3 g ai/ha alone) was 29%.
